# Experimental data: article PMC11061149, “Protein mimetic 2D FAST rescues alpha synuclein aggregation mediated early and post disease Parkinson’s phenotypes” (Nature Communications, 2024)
# “And” between values parts separate entries of the source, which are not always exact repeats. Equal entries are not always repeated.
# Key:
# [1] = molecular target: T1, α-Synuclein (αS) aggregation (Homo sapiens, UniProt P37840); assay: Thioflavin T (ThT) dye-based αS aggregation assay (de novo); format: biochemical; details: for ThT intensity relative to Synuclein alone (=1), Average / ThT intensity relative to Synuclein alone (=1), Trial 1-3: 100 µM αS, four days, equimolar; for ThT intensity relative to Synuclein alone (=1), Trial 1-3 / Relative ThT intensity of αS aggregation: individual trials; for Relative ThT intensity of αS aggregation, Average / Relative ThT intensity of αS aggregation: Synuclein alone about 1; for remaining activity at 100 µM: 96 h, pH 6.5, 100 μM αS, 1×PBS pH 6.5, four days, ligand:αS equimolar, read-out: ThT signal/intensity relative to αS alone (100%); for ThT intensity (raw), individual trials: αS aggregation after four days, NS132 derivatives equimolar (Fig. 2r)
# T1 construct: made in house; host or cells: E. coli BL21(DE3)
# Procedure: We used a 2D FAST approach in OPs to identify potent antagonists of the aggregation of αS. In this approach, we start with a library of monopyridyls with different functional groups. The library of monopyridyls was synthesized using 2-chloro-6-methyl-3-nitropyridine as a common precursor, which was treated with primary alcohols with diverse side chain functionalities via a one-pot reaction (Fig. 1B, a and see Supplementary information for synthetic details). […] We selected the side chains containing hydrophobic, polar, positively charged, and negatively charged functional groups, which mimic the side chains of the amino acids (Fig. 1C). […] The monopyridyl library was screened against the aggregation of 100 μM αS at an equimolar ratio using Thioflavin T (ThT) dye-based aggregation assay (Fig. 1B, b). […] The chloro-dipyridyl was reacted with a library of primary amines/thiols to synthesize a library of dipyridyls (Fig. 1B, e) using a one-pot reaction. […] However, a few dipyridyls required column chromatography to separate them from the starting material side chains because of their very high boiling point (7 out of 21 dipyridyls required column, Supplementary Fig. 1). […]
# Aggregation Kinetics were measured according to a previously described protocol. […] The solutions were placed in a ThermoMixer (Eppendorf, Hamberg, Germany) at 37 °C with constant shaking at 1300 rpm (rpm). At different time points, 5 μL aliquots of each αS solution were added to 95 μL PBS containing 50 μM Thioflavin T (ThT) dye in a Costar black 96 well plate (Corning Inc., Kennebunk, ME). ThT fluorescence intensity was measured (λex = 450 nm and λem = 490 nm) on an Infinite M200PRO plate reader (Tecan, Männedorf, Switzerland), and plotted against time to give a sigmoidal curve typical of amyloid aggregation. For the single point ThT aggregation, 100 μM αS, in the absence and presence of ligands, was aggregated under the described conditions and the ThT fluorescence was reported at 96 h. The reported ThT intensity values are the average of each experiment conducted in triplicate, with the error bars representing the standard deviations or standard error of the mean (s.e.m.) as described in the main manuscript.
# αS aggregation = molecular target: T2, αS aggregation (Homo sapiens, UniProt P37840); assay: SDS-PAGE gel shift assay of soluble and insoluble αS fractions; format: biochemical; details: for αS band intensity, Total / Total (αS, SDS-PAGE gel shift), Trial 1-3: individual trials; for Total (αS, SDS-PAGE gel shift), Average: average of 3 trials; for Total (αS, SDS-PAGE gel shift), Average / Total (αS, SDS-PAGE gel shift), Trial 1-3: sheet S9D
# T2 construct: made in house; host or cells: E. coli BL21(DE3)
# Source text: The inhibition of αS aggregation by NS41 was also confirmed by TEM images, which show an abundance (Supplementary Fig. 3a) and low amount (Supplementary Fig. 3b) of αS fibers in the absence and presence of NS41, respectively. We used SDS-PAGE (Sodium dodecyl sulfate polyacrylamide gel electrophoresis) as a complementary assay to validate ThT results and to further characterize the antagonist activity of the monopyridyls against αS aggregation. We used a total of four monopyridyls with varying antagonist activity against αS aggregation for the SDS-PAGE assay. The solutions of αS (±monopyridyls) were centrifuged and the soluble and insoluble fractions were subjected to SDS-PAGE analysis as reported earlier (Fig. 2d, Supplementary Fig. 4a, see details in methods section). The band intensities of the gels in SDS-PAGE assay were quantified using ImageJ software. In the absence of ligands, ~12% of αS was found in the soluble fraction and the rest was found in the insoluble fraction (Fig. 2d, Supplementary Fig. 4a, b). In the presence of NS41 at molar ratios of 1:1 and 2:1 (NS41:αS), 48% and 73% of αS protein were found in the soluble fraction, respectively, and the rest of αS protein was found in the insoluble fraction (Fig. 2d, Supplementary Fig. 4a, b). […] The antagonist activity of the monopyridyls corroborated well from both ThT and the SDS-PAGE assays (Fig. 2a–d, Supplementary Fig. 4a, b). The higher the antagonist activity of monopyridyls against αS aggregation, the lower the ThT intensity and the higher the amount of αS remained in the soluble fraction (Fig. 2a–d, Supplementary Fig. 4a, b). […] It is important to note that NS41 contains a carboxyl (COOH) functional group side chain. […] We have also shown in that work that the foldamer binds to the N-terminus of αS because of its negatively charged COOH functional group interaction with the positively charged lysine residues of αS[24]. […] Additionally, we have also shown that the OPs with the COOH functional group are very effective inhibitors of aggregation of other amyloid proteins that contain lysine amino acid via the formation of salt bridges[30]–[34].
# An αS solution (100 µM) was prepared in PBS with or without ligands and shaken ([…], 37 °C) until the fluorescence plateaued, as observed using the ThT aggregation assay, indicative of the aggregation of αS as a control (four days for most experiments unless otherwise mentioned). The solutions were separated into soluble and insoluble fractions by centrifugation at 22,000 × g for 20 min. The fractions were diluted in 2×Laemmli protein sample loading buffer (Containing 2.1% SDS, Bio-rad, Hercules, CA), boiled at 95 °C for 5 min, and ran on a 12% Mini-PROTEAN precast protein gel (Bio-rad, Hercules, CA). The gel was visualized using ChemiDoc MP Imaging System (Bio-rad, Hercules, CA) and band intensity was quantified using Image Lab image acquisition and analysis software (Bio-rad, Hercules, CA). Densitometry values were averaged from three technical replicates and reported with the error bars representing their standard deviations.
compound,measurement,setting,value
Cc1ccc([N+](=O)[O-])c(OCC2CCCCC2)n1 [RD222],"ThT intensity relative to Synuclein alone (=1), Average",[1],0.6644
same,"ThT intensity relative to Synuclein alone (=1), Trial 1-3",[1],0.6754 and 0.635 and 0.6826
same,"αS band intensity, Total, Average",αS aggregation; sheet S4B,100
same,"αS band intensity, Total",αS aggregation; sheet S4B,97.5 and 99 and 103.5
Cc1ccc(NC(=O)c2ccc([N+](=O)[O-])c(NCCc3ccc(O)cc3)n2)c(OCC(=O)O)n1 [NS160],"ThT intensity relative to Synuclein alone (=1), Average",[1],0.7268
same,"ThT intensity relative to Synuclein alone (=1), Trial 1-3",[1],0.8429 and 0.6915 and 0.6459
same,"Relative ThT intensity of αS aggregation, Average",[1]; sheet S5A,0.7268
same,Relative ThT intensity of αS aggregation,[1]; sheet S5A,0.8429 and 0.6915 and 0.6459
same,"αS band intensity, Total, Average",αS aggregation; sheet S5B,100
same,"αS band intensity, Total",αS aggregation; sheet S5B,103.4 and 101 and 95.6
Cc1ccc(NC(=O)c2ccc([N+](=O)[O-])c(NCCc3c[nH]c4ccccc34)n2)c(OCC(=O)O)n1 [NS72],"ThT intensity relative to Synuclein alone (=1), Average",[1],0.08383
same,"ThT intensity relative to Synuclein alone (=1), Trial 1-3",[1],0.08532 and 0.05997 and 0.1062
Cc1ccc(NC(=O)c2ccc(NC(=O)c3ccc([N+](=O)[O-])c(NCC4CCCCC4)n3)c(NCC3CCCCC3)n2)c(OCC(=O)O)n1 [NS126],"ThT intensity relative to Synuclein alone (=1), Average",[1],0.4588
same,"ThT intensity relative to Synuclein alone (=1), Trial 1-3",[1],0.4925 and 0.4832 and 0.4007
same,remaining activity at 100 µM,[1],45.9%
Cc1ccc(NC(=O)c2ccc(NC(=O)c3ccc([N+](=O)[O-])c(NCCc4c[nH]c5ccccc45)n3)c(NCC3CCCCC3)n2)c(OCC(=O)OC(C)(C)C)n1 [NS132-P],remaining activity at 100 µM,[1],80%
same,"ThT intensity (raw), individual trials",[1],15241 and 16712 and 15019
same,amount of αS in the insoluble fraction,"αS aggregation; 100 µM αS, four days, equimolar",84%
same,"Total (αS, SDS-PAGE gel shift), Average",αS aggregation; NS132-P 0.5 eq.,0.8767
same,"Total (αS, SDS-PAGE gel shift), Trial 1-3",αS aggregation; NS132-P 0.5 eq.,0.83 and 0.85 and 0.95
same,"Total (αS, SDS-PAGE gel shift), Average",αS aggregation; NS132-P 1.0 eq.,1.02
same,"Total (αS, SDS-PAGE gel shift), Trial 1-3",αS aggregation; NS132-P 1.0 eq.,1.069 and 1.01 and 0.98
Cc1ccc(NC(=O)c2ccc(NC(=O)c3ccc([N+](=O)[O-])c(Cl)n3)c(NCC3CCCCC3)n2)c(OCC(=O)O)n1 [NS122],remaining activity at 100 µM,[1],30%
same,"Relative ThT intensity of αS aggregation, Average",[1]; sheet S7A,0.339
same,Relative ThT intensity of αS aggregation,[1]; sheet S7A,0.3017 and 0.3699 and 0.3455
same,"ThT intensity (raw), individual trials",[1],5423 and 5518 and 5332
same,"αS band intensity, Total, Average",αS aggregation; sheet S7B,100
same,"αS band intensity, Total",αS aggregation; sheet S7B,101.8 and 101.7 and 96.5
Cc1ccc(NC(=O)c2ccc(NC(=O)c3ccc([N+](=O)[O-])c(NCCc4ccc(O)cc4)n3)c(NCC3CCCCC3)n2)c(OCC(=O)O)n1 [NS168],"ThT intensity relative to Synuclein alone (=1), Average",[1],0.02443
same,"ThT intensity relative to Synuclein alone (=1), Trial 1-3",[1],0.02302 and 0.02387 and 0.02641
same,remaining activity at 100 µM,[1],2.7%
